target: Steroidogenic factor 1 (Homo sapiens, UniProt Q13285); assay: inhibition of SF-1 LBD-driven luciferase – cell-based, CHO-K1, Gal4-SF-1 LBD, luciferase luminescence, counter-screen for RORA inhibitor project, dose response (AID 611); conditions: not given
Sequence (Q13285 whole entry, the tested form may be a part): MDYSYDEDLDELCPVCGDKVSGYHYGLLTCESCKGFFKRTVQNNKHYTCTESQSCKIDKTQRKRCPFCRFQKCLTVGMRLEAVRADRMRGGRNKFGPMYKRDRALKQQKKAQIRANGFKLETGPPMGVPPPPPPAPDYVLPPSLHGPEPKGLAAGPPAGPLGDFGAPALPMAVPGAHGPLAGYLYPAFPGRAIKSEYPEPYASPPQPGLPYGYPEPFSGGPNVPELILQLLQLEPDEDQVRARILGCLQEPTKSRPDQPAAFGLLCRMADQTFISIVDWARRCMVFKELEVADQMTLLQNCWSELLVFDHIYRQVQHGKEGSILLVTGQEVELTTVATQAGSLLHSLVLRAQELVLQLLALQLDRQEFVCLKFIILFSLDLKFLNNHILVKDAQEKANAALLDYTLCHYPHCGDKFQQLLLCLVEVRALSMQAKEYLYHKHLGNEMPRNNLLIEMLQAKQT

Row | Compound | IC50
1 | CC1CCCCC1NS(=O)(=O)c1ccc(S(=O)(=O)NCc2ccncc2)cc1 (configuration not stated) [4-N-(2-methylcyclohexyl)-1-N-(pyridin-4-ylmethyl)benzene-1,4-disulfonamide] | 8.38 µM
2 | CCn1nc(-c2cccs2)nc2c(=O)n(C)c(=O)nc1-2 [1-ethyl-6-methyl-3-thiophen-2-yl-pyrimido[5,4-e][1,2,4]triazine-5,7-dione] | 2.19 µM
3 | Cn1nc(CC(=O)Nc2ccc3c(c2)OCCO3)c2ccccc2c1=O [MLS000047020] | 6.3 µM
4 | Cc1ccc(-c2nc3nc4ccccc4nc3n2Cc2ccco2)cc1 [3-(2-furanylmethyl)-2-(4-methylphenyl)imidazo[4,5-b]quinoxaline] | > 33 µM
5 | Cc1cc(-n2c(C)cc(C(=O)CSc3ncnc4ccccc34)c2C)no1 [1-[2,5-dimethyl-1-(5-methyl-1,2-oxazol-3-yl)pyrrol-3-yl]-2-quinazolin-4-ylsulfanyl-ethanone] | 6.03 µM
6 | COc1ccc2c(c1)[nH]c1c(N3CCN(Cc4ccc5c(c4)OCO5)CC3)ncnc12 [4-[4-(1,3-benzodioxol-5-ylmethyl)piperazin-1-yl]-7-methoxy-5H-pyrimido[5,4-b]indole] | 7.25 µM
7 | COc1ccc(-n2ncc3c(N4CCCCC4)ncnc32)cc1 [1-(4-methoxyphenyl)-4-(1-piperidinyl)pyrazolo[3,4-d]pyrimidine] | 2 µM
8 | O=C(CC=Nc1ccc2c(c1)OCO2)c1ccccn1 [(Z)-3-(1,3-benzodioxol-5-ylamino)-1-(2-pyridinyl)-2-propen-1-one] | 1.5 µM
9 | CCOc1ccc(-c2cc(CCCC(=O)NCCCOC)no2)cc1 [4-[5-(4-ethoxyphenyl)-1,2-oxazol-3-yl]-N-(3-methoxypropyl)butanamide] | 2.64 µM
10 | Cc1ccc(-c2cc3c(nn2)-c2ccccc2C3=O)cc1 [3-(4-methylphenyl)-5H-indeno[1,2-c]pyridazin-5-one] | 2.62 µM
11 | COc1ccc(C(=O)Nn2c(SCC(=O)NCC3CCCO3)nc3ccccc3c2=O)cc1 (configuration not stated) [4-methoxy-N-[4-oxidanylidene-2-[2-oxidanylidene-2-(oxolan-2-ylmethylamino)ethyl]sulfanyl-quinazolin-3-yl]benzamide] | 4.51 µM
12 | COc1ccc(CC(=O)Nc2cccc(-c3nnc(-c4cccc(C)c4)o3)c2)cc1OC [2-(3,4-dimethoxyphenyl)-N-[3-[5-(3-methylphenyl)-1,3,4-oxadiazol-2-yl]phenyl]acetamide] | 5.9 µM
13 | CCOc1cc(C(=O)CSc2nnc(CNc3ccc(Cl)cc3)o2)ccc1NC(=O)CC [MLS000032332] | 7.64 µM
14 | COc1ccc(CNC(=O)c2cc3c(C)nc4ccccc4c3o2)c(OC)c1 [MLS000118441] | > 3.67 µM
15 | Cc1cc(C(=O)CN2C(=O)c3ccccc3S2(=O)=O)c(C)n1CC1CCCO1 (configuration not stated) [2-[2-[2,5-dimethyl-1-(2-oxolanylmethyl)-3-pyrrolyl]-2-oxoethyl]-1,1-dioxo-1,2-benzothiazol-3-one] | 5.61 µM
16 | CCC(NC(=O)Nc1nnc(C(F)(F)F)s1)(C(F)(F)F)C(F)(F)F | 2.74 µM
17 | CN=c1scc(C)n1N=Cc1ccc(O)cc1O [(4E)-4-[[(4-methyl-2-methylimino-1,3-thiazol-3-yl)amino]methylidene]-3-oxidanyl-cyclohexa-2,5-dien-1-one] | 1.94 µM
18 | Cc1ccc(-c2nc(-c3ccccn3)no2)cc1Cl [5-(3-chloranyl-4-methyl-phenyl)-3-pyridin-2-yl-1,2,4-oxadiazole] | 2.22 µM
19 | CCc1ccc(-c2nc(CSCC(=O)NCCCN3CCCC3=O)c(C)o2)cc1 [2-({[2-(4-ethylphenyl)-5-methyl-1,3-oxazol-4-yl]methyl}thio)-N-[3-(2-oxopyrrolidin-1-yl)propyl]acetamide] | 5.56 µM
20 | CCn1c(C)nc2cc(-c3nc4n(n3)Cc3ccccc3-4)ccc21 [2-(1-ethyl-2-methyl-5-benzimidazolyl)-5H-[1,2,4]triazolo[5,1-a]isoindole] | > 0.00503 µM
21 | c1ccc2c(c1)CCN(c1ncnc3c1[nH]c1ccccc13)C2 [SMR000039631] | 2.99 µM
22 | O=C(c1ccc(Cl)cc1)N1CCCCC(Sc2nnc(-c3ccc4c(c3)OCO4)o2)C1=O (configuration not stated) [3-[[5-(1,3-benzodioxol-5-yl)-1,3,4-oxadiazol-2-yl]sulfanyl]-1-(4-chlorobenzoyl)azepan-2-one] | 1.46 µM
23 | O=S(=O)(NCc1ccncc1)c1ccc(Br)s1 [5-bromanyl-N-(pyridin-4-ylmethyl)thiophene-2-sulfonamide] | 3.74 µM
24 | Cc1ccc(-c2cn3nc(C)c(C)nc3n2)cc1 [2,3-dimethyl-6-(4-methylphenyl)imidazo[1,2-b][1,2,4]triazine] | 4.13 µM

Row | Compound | IC50
25 | Cc1cc(C(=O)Nc2cccc(C(=O)O)c2)oc1C [3-[(4,5-dimethyl-2-furoyl)amino]benzoic acid] | 2.16 µM
26 | Cc1ccc(-c2noc(CCCC(=O)Nc3cccnc3)n2)cc1 [4-[3-(4-methylphenyl)-1,2,4-oxadiazol-5-yl]-N-(3-pyridinyl)butanamide] | 8.03 µM
27 | O=c1cc(N2CCN(c3cccc(Cl)c3)CC2)[nH]c(=O)n1C1CCCCC1 [MLS000094380] | 0.44 µM
28 | N#CC(C#N)=c1ccc2c(c1)NC1(CCCCC1)N=2 [2-spiro[3H-benzimidazole-2,1'-cyclohexane]-5-ylidenepropanedinitrile] | 9.07 µM
29 | CC(=O)c1sc(NC(=O)C2(F)C(F)(F)C(F)(F)C(F)(F)C(F)(F)C2(F)F)nc1C [MLS000040071] | 6.77 µM
30 | Cc1csc(SCC(=O)c2cc(C)n(Cc3cccs3)c2C)n1 [1-[2,5-dimethyl-1-(2-thenyl)pyrrol-3-yl]-2-[(4-methylthiazol-2-yl)thio]ethanone] | 9.88 µM
31 | c1ccc2nc(-c3nc4ccccc4o3)ccc2c1 [2-(1,3-benzoxazol-2-yl)quinoline] | 5.39 µM
32 | Cc1nnc(Sc2nc(Sc3nnc(C)s3)nc(N3CCN(C)CC3)n2)s1 [2-(4-Methyl-piperazin-1-yl)-4,6-bis-(5-methyl-[1,3,4]thiadiazol-2-ylsulfanyl)-[1,3,5]triazine] | 3.55 µM
33 | Cc1ccc(NC(=O)Cc2nn(C)c(=O)c3ccccc23)cc1F [MLS000047015] | 3.9 µM
34 | CCCCCOC(=O)c1[nH]c2c(c1C)C(=O)CC(c1ccco1)C2 (configuration not stated) [pentyl 6-(furan-2-yl)-3-methyl-4-oxidanylidene-1,5,6,7-tetrahydroindole-2-carboxylate] | 1.87 µM
35 | C[C@@]1(CO)[C@H](O)CC[C@@]2(C)[C@H]1CC[C@H]1C[C@@H]3C[C@@]12CC[C@]3(O)CO [6,13-di(hydroxymethyl)-2,6-dimethyl-(1S,2S,5R,6R,7R,10S,12R,13R)-tetracyclo[10.3.1.01,10.02,7]hexadecane-5,13-diol (Aphidicolin)] | 0.519 µM
36 | CCOc1ccc(-c2nc(CSCC(=O)NCc3ccco3)c(C)o2)cc1 [2-({[2-(4-ethoxyphenyl)-5-methyl-1,3-oxazol-4-yl]methyl}thio)-N-(2-furylmethyl)acetamide] | 0.259 µM
37 | CCCS(=O)(=O)c1nnnn1-c1cccc(OC)c1 [1-(3-methoxyphenyl)-5-(propylsulfonyl)-1H-tetrazole] | 7.63 µM
38 | Oc1c(CN2CCCCC2)cc(COCc2ccccc2)c2cccnc12 [5-(benzoxymethyl)-7-(piperidinomethyl)quinolin-8-ol] | 7.58 µM
39 | CCNC(=O)CCc1nc(-c2ccc(C(C)(C)C)cc2)no1 [3-[3-(4-tert-butylphenyl)-1,2,4-oxadiazol-5-yl]-N-ethyl-propanamide] | 0.0417 µM
40 | CCn1c2ccccc2c2cc(NC(=O)CSc3nnnn3-c3ccccc3)ccc21 [MLS000051054] | 6.74 µM
41 | COc1ccc(C2=Nn3c(nnc3-c3ccccc3OC)SC2)cc1OC [BMCL181297 Compound 5A] | > 3.67 µM
42 | Cc1cccc(NC(=O)Nc2ccc(C#N)cc2)n1 [1-(4-cyanophenyl)-3-(6-methyl-2-pyridinyl)urea] | 6.32 µM
43 | Cc1ccc(N=C2Nc3ccccc3CS2)cc1 | > 11 µM
44 | CCOc1ccc(-c2nc(CSCC(=O)NCCN3CCOCC3)c(C)o2)cc1 [2-({[2-(4-ethoxyphenyl)-5-methyl-1,3-oxazol-4-yl]methyl}thio)-N-(2-morpholin-4-ylethyl)acetamide] | 4 µM
45 | Cn1c(-c2ccco2)nc2cc3ccccc3cc21 [2-(2-furanyl)-3-methylbenzo[f]benzimidazole] | > 3.67 µM
46 | Fc1ccc(-c2nnc(NC3=NCCCCC3)o2)cc1 [5-(4-fluorophenyl)-N-(3,4,5,6-tetrahydro-2H-azepin-7-yl)-1,3,4-oxadiazol-2-amine] | > 3.67 µM
47 | O=C(NCCOc1ccccc1)c1ccc2c(c1)OCO2 [MLS000100028] | 9.86 µM

same assay, conditions: inactive by the depositor's call

Row | Compound | IC50
48 | COc1cccc(OC)c1C1=NCC(=O)Nc2c1oc1ccc(Br)cc21 [9-bromanyl-5-(2,6-dimethoxyphenyl)-1,3-dihydro-[1]benzofuro[3,2-e][1,4]diazepin-2-one] | 15.4 µM
49 | Cc1cc(C)nc(SC2=CS(=O)(=O)c3ccccc32)n1 [2-[(1,1-dioxido-1-benzothien-3-yl)thio]-4,6-dimethylpyrimidine] | 13 µM
50 | Cc1cc(C)n2nc(SCC(=O)c3cc(C)n(-c4cc(C)on4)c3C)nc2n1 [1-[2,5-dimethyl-1-(5-methyl-1,2-oxazol-3-yl)pyrrol-3-yl]-2-[(5,7-dimethyl-[1,2,4]triazolo[1,5-a]pyrimidin-2-yl)sulfanyl]ethanone] | 16.8 µM
51 | Cc1nc(NC(C)c2ccccc2)c2oc3ccccc3c2n1 (configuration not stated) [(2-methylbenzofuro[3,2-d]pyrimidin-4-yl)-(1-phenylethyl)amine] | 23.1 µM
52 | CCCNc1nc2c(c(=O)n(C)c(=O)n2C)n1Cc1cccc(C)c1 [1,3-Dimethyl-7-(3-methyl-benzyl)-8-propylamino-3,7-dihydro-purine-2,6-dione] | 21.5 µM
53 | c1ccc(CN2CCN(c3ncnc4c3[nH]c3ccccc34)CC2)cc1 [MLS000078384] | 11.3 µM
54 | Fc1ccc2[nH]c3c(N4CCSCC4)ncnc3c2c1 [MLS000078401] | 10.4 µM
55 | CCOc1cc(C(=O)N2CCc3cc(OC)c(OC)cc3C2)ccc1OC(F)F [MLS000083614] | 10.6 µM
56 | Cc1cccc2cc3c(nc12)S/C(=N\CC1CCCO1)N(Cc1ccco1)C3 (configuration not stated) [3-(2-furanylmethyl)-9-methyl-N-(2-oxolanylmethyl)-4H-[1,3]thiazino[6,5-b]quinolin-2-imine] | 63.7 µM
57 | Cc1ccc2nc(C(F)(F)F)c(C#N)c(N)c2c1 [4-amino-6-methyl-2-(trifluoromethyl)-3-quinolinecarbonitrile] | 11.6 µM
